Earlier results on 1 molecule are cited in article PMC3530638 (Biochimica et biophysica acta, 2012).

One may read the MIC as the smallest concentration in the dilution series that meets the test's criterion for growth inhibition.

The subject of this series is B. anthracis. Conditions: cited from earlier work.

`CCCC1c2ccccc2C=NN1C(=O)/C=C/c1cc(Cc2cnc(N)nc2N)cc(OC)c1OC` (stereo not shown) [n-propyl, (E)-3-[5-(2,4-diaminopyrimidin-5-ylmethyl)-2,3-dimethoxyphenyl]-1-(1-propyl-1h-phthalazin-2-yl)propenone]: the MIC was 1 to 3 µg/mL.
